“And” between values parts separate entries of the source, which are not always exact repeats. Equal values may be shown once.
System: MCF-7 cells
Test: MCF-7 cell viability, PrestoBlue Cell Viability Reagent
Type: cell-based, human
Conditions: individual ingredients, MCF-7, 2 mg/0.2 ml
Procedure: In order to assess this activity, a well-established line of breast cancer cells used in cancer research was selected. MCF-7 is a widely studied cancer cell line derived from breast adenocarcinoma, it was proven to be a suitable model cell line for breast cancer investigations worldwide, including those regarding anticancer drugs.
The cells were cultured with growth medium and seeded in two 96 well plates incubated at 37 Celsius. The HCBCP solution was prepared by dissolving the powder in DPBS as per Table 1, below.
The obtained solutions were sterilized by 0.22-micron filtration.
An amount of 0.2 ml was applied in each test tube providing 2 mg of HCBCP. […]
After incubation period of 24 and 48 hours, cell viability was measured using PrestoBlue™ Cell Viability Reagent, according to manufacturer instructions.
Fluorescence was detected at excitation wavelength of 560 nm and an emission of 590 nm, using TECAN SPARK 10M microplate reader, at 24 and 48 hours after application. The fluorescence data is expressed as percentage of cell viability (%) compared to vehicle control.
Percentage of cell viability was calculated using the following formula: [(fluorescence of treated cells—mean background fluorescence)/(fluorescence of cells with vehicle control—mean background fluorescence)]×100, at 24 and 48 Hours after Application. […]

In the case of `O=c1c(O)c(-c2ccc(O)c(O)c2)oc2cc(O)cc(O)c12` [BF 2 Q, Quercetin], the “Mean cell viability (%)” value (24 h (Table 3)) was 42.10% and the “Cell Viability (%)” value (24 h, single replicates (Table 3)) was 44.43% and 44.39% and 40.25% and 39.33%.
